What was measured:
[1] = test system: mouse GMPs; assay: Ex vivo expansion of mouse bone marrow-derived cells / mouse GMPs; type: cell-based
Description: (A) Schematic of the experimental design to identify growth factors and small molecules that can promote expansion of mouse bone marrow-derived stem cells. (B) Representative phase-contrast images of mouse bone marrow cells cultured in N2B27 supplemented with the indicated small molecule inhibitors for 7 days. (C) Representative phase-contrast images of mouse bone marrow cells cultured in N2B27 supplemented with SCF plus GDC0879 or SB590885 for 3 passages. (D) Cell growth curves. Bone marrow cells isolated from C57BL/6J mice were plated into 24-well plates at a density of 2×10^5 cells/well and cultured in B7 medium supplemented with the indicated small molecules/growth factor. Cells were counted and passaged every 3 days. Data are represented as mean±SD from three independent experiments. (E) Bone marrow cells isolated from C57BL/6J mice were cultured in B7 medium supplemented with SCF/2i. Cells were passaged every 3 days. Representative phase-contrast pictures showing SCF/2i cells at different passages. (F) Cytogenetic analysis of SCF/2i cells using the GWT banding method. Bone marrow cells isolated from a female C57BL/6J mouse were expanded in SCF/2i for 8 passages before used for cytogenetic analysis. […] (G) Sequential images of individual bone marrow cells during expansion in B7 medium supplemented with SCF/2i. SCF/2i-expanded bone marrow cells were plated into 96-well plates at a density of 50 cells/well and cultured in SCF/2i. Sequential images were taken using the Keyence BZ-X710 microscopy every 24 hours. 15.7±4.0 colonies formed per well on day 4 (n=3×96). Data are represented as mean±SD from three independent experiments.
Mouse GMP derivation, expansion, and differentiation. Cells were cultured at 37° C. in a 5% CO2 water jacket incubator (Thermo Scientific). Bone marrow cells isolated from C57BL/6J, mTmG or CAG-Cas9-EGFP mice were plated into 6-well plates at a density of 2×10^6 cells/well and cultured in 2 mL B7 medium supplemented with 50 ng/mL SCF, 1 μM GDC-0879, and 10 μM SKL2001 (SCF/2i). After 3-4 days, cells were dissociated into single-cell suspension by pipetting up and down and replated into 6-well plates at a density of 2×10^6 cells/well and cultured in 2 mL B7 medium supplemented with SCF/2i. After 2 passages in SCF/2i, the majority of cells were GMPs. GMPs were routinely passaged every 3 days. To induce differentiation, GMPs were plated into 10 cm tissue culture dishes and cultured in RPMI-1640 medium containing 10% FBS and supplemented with either 20 ng/mL M-CSF (for macrophage differentiation) or 20 ng/mL G-CSF (for granulocyte differentiation). GMP-derived macrophages were harvested on day 7 (medium was changed once on day 4) and GMP-derived granulocytes were harvested on day 3 and used for the further experiments.
Development of defined conditions for the long-term ex vivo expansion of hematopoietic stem/progenitor cells. To develop conditions for the long-term expansion of stem or progenitor cells of the hematopoietic system, screening was conducted to identify small molecules and growth factors/cytokines that can promote their ex vivo expansion (see FIG. 3A). Specifically, bone marrow cells isolated from adult C57BL/6 mice were plated into 96-well plates in serum-free N2B27 medium. Then a first-round small molecule screening was performed. It was reasoned that if a small molecule can block differentiation or promote expansion of stem cells, these stem cells should form colonies with a uniform cell morphology. […] Upon passaging, however, no new colonies were formed in culture with any of the 5 small molecule inhibitors. A second-round screening was conducted to identify growth factors/cytokines that could further improve the expansion of the colonies.
More importantly, these cells could be expanded robustly at clonal density (see FIG. 3G).
SCF/2i-expanded cells are GMPs. […]

[2] = test system: human GMPs; assay: Ex vivo expansion of human GMPs sorted from cord blood; type: cell-based; conditions: added to SCF/GDC-0879
Description: (A) Growth curves of human GMPs. Human GMPs were FACS sorted from cord blood and cultured in the designated conditions. Cells were passaged every 3 days and replated into 12-well plates at a density of 1×10^5 cells/well. Data are represented as mean±SD from three independent experiments. (B) Structure of TN-2-30. (C) Representative phase-contrast images of human GMPs cultured in modified SCF/2i. P, passage number. (D) Sorted human GMPs were expanded in modified SCF/2i and induced to differentiate towards granulocytes by treatment with 30 ng/ml human G-CSF for 10 days. Differentiated cells were analyzed by Giemsa staining (upper panel) and flow cytometry (lower panel). Flow cytometry data are represented as mean±SD from three independent experiments. (E) Relative MPO activities of human GMPs and human GMP-derived granulocytes stimulated with or without PMA for 2 hours. Differentiated cells generated in (D) were plated into 96-well plates at a density of 2×10^4 cells/well and stimulated with or without PMA for 2 hours, after which MPO activities in the supernatants were measured. Data are represented as mean±SD from three independent experiments. […] (H) Differentiated cells generated in (D) and (F) were plated into 96-well plates at a density of 2×10^4 cells/well and stimulated with or without 500 ng/ml LPS for 6 hours, after which cytokine secretion in the supernatants was measured by ELISA. […]

## O=C(NCCCn1ccnc1)c1cc(-c2ccco2)on1 [SKL2001]
[1]; combined with SCF and GDC-0879
  long-term expansion of a uniform cell population: allowed for the long-term expansion
[1]; second screening, with GDC-0879
  interaction with GDC-0879 in promoting expansion of the uniform round-shaped cells: acted synergistically
[1]; β-catenin knockout mouse GMPs
  requirement for expansion of β-catenin knockout mouse GMPs: still required the addition of SKL2001
[2]
  effect of addition on expansion of human GMPs: only marginally improved

— US20240294876A1, “METHODS FOR THE EXPANSION OF HUMAN GRANULOCYTE-MACROPHAGE PROGENITORS AND APPLICATIONS THEREOF” (University of Southern California, priority 2021, published 2024)
